The results in this text go back to ChEMBL document CHEMBL4402511, “Development of covalent antagonists for β1- and β2-adrenergic receptors” (Bioorg Med Chem, 2019).

A short description of experiment [1]: Selectivity index, ratio of Ki for displacement of [3H]CGP12177 from human beta2 adrenoceptor expressed in CHO cell membranes to Ki for displacement of [3H]CGP12177 from mouse beta1 adrenoceptor expressed in HEK293T cell membranes. (Displacement assays read how much labelled ligand stays bound in the presence of the test substance.)
The target in experiment [2] is Beta-1 adrenergic receptor (Mus musculus, UniProt P34971). The experiment is described as follows: Displacement of [3H]CGP12177 from mouse beta1 adrenoceptor expressed in HEK293T cell membranes.
Chain of Beta-1 adrenergic receptor (P34971 whole entry): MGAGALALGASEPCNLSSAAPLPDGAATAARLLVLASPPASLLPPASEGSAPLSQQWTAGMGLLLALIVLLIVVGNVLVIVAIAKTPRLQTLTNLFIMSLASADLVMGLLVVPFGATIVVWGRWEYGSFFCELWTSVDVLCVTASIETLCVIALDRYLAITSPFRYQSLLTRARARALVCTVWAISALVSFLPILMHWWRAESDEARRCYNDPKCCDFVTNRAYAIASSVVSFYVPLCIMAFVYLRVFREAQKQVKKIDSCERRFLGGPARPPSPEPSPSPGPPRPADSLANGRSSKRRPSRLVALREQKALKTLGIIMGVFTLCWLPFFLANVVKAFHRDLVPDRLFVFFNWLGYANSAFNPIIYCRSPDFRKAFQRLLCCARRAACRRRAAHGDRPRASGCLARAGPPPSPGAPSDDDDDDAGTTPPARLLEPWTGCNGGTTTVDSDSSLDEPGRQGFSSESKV
Experiment [3] deals with Beta-2 adrenergic receptor (Homo sapiens, UniProt P07550). Put plainly: Displacement of [3H]CGP12177 from human beta2 adrenoceptor expressed in CHO cell membranes.
Chain of Beta-2 adrenergic receptor (P07550 whole entry): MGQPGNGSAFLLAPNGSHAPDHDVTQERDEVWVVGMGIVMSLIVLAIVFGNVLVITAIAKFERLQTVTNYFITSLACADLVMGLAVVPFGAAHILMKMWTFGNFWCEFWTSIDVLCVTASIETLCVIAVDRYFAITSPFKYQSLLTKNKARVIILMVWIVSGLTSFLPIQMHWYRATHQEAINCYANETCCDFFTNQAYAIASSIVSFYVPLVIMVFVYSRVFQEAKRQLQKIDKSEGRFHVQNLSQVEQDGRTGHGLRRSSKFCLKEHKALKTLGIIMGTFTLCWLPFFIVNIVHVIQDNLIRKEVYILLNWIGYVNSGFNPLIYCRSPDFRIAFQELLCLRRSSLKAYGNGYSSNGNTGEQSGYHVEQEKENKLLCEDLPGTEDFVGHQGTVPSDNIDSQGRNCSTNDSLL
The species named for experiment [4] is Mus musculus. Put plainly: (§1) Displacement of [3H]CGP12177 from mouse beta1 adrenoceptor I2.64C mutant expressed in HEK293T cell membranes.
For experiment [5], the species on record is Homo sapiens. Put plainly: (§2) Displacement of [3H]CGP12177 from human beta2 adrenoceptor H2.64C mutant expressed in HEK293T cell membranes.
The species named for experiment [6] is Homo sapiens. The experiment is described as follows: Covalent binding affinity to human beta2 adrenoceptor H2.64C mutant expressed in HEK293T cell membranes assessed as covalent blockage of binding site at 1 nM measured after 90 mins by [3H]CGP12177 binding based radioligand depletion assay relative to control.
For experiment [7], the species on record is Homo sapiens. The experiment is described as follows: Covalent binding affinity to human beta2 adrenoceptor H2.64C mutant expressed in HEK293T cell membranes assessed as covalent blockage of binding site at 1 nM measured after 15 mins by [3H]CGP12177 binding based radioligand depletion assay relative to control.
The species named for experiment [8] is Mus musculus. The experiment is described as follows: Covalent binding affinity to mouse beta1 adrenoceptor I2.64C mutant expressed in HEK293T cell membranes assessed as covalent blockage of binding site at 50 nM measured after 120 mins by [3H]CGP12177 binding based radioligand depletion assay relative to control.
Experiment [9] in a line: as §2.
Experiment [10] is filed under the species Homo sapiens. The experiment is described as follows: Covalent binding affinity to human beta2 adrenoceptor H2.64C mutant expressed in HEK293T cell membranes assessed as covalent blockage of binding site at 5 nM measured within 15 mins by [3H]CGP12177 binding based radioligand depletion assay relative to control.
Experiment [11] is filed under the species Homo sapiens. The experiment is described as follows: Covalent binding affinity to human beta2 adrenoceptor H2.64C mutant expressed in HEK293T cell membranes assessed as covalent blockage of binding site at 5 nM measured after 30 mins by [3H]CGP12177 binding based radioligand depletion assay relative to control.
Experiment [12] is filed under the species Homo sapiens. Put plainly: Covalent binding affinity to human beta2 adrenoceptor H2.64C mutant expressed in HEK293T cell membranes assessed as covalent blockage of binding site measured after 15 mins by [3H]CGP12177 binding based radioligand depletion assay relative to control.
Experiment [13] is filed under the species Homo sapiens. Put plainly: Covalent binding affinity to human beta2 adrenoceptor H2.64C mutant expressed in HEK293T cell membranes assessed as covalent blockage of binding site at 80 nM measured after 30 mins by [3H]CGP12177 binding based radioligand depletion assay relative to control.
The species named for experiment [14] is Mus musculus. The experiment is described as follows: Covalent binding affinity to mouse beta1 adrenoceptor I2.64C mutant expressed in HEK293T cell membranes assessed as covalent blockage of binding site at 1 uM measured after 120 mins by [3H]CGP12177 binding based radioligand depletion assay relative to control.
The species named for experiment [15] is Homo sapiens. The experiment is described as follows: Covalent binding affinity to human beta2 adrenoceptor H2.64C mutant expressed in HEK293T cell membranes assessed as covalent blockage of binding site at 1 uM measured after 120 mins by [3H]CGP12177 binding based radioligand depletion assay relative to control.
A short description of experiment [16]: as §1.
The species entered for experiment [17] is Homo sapiens. The experiment is described as follows: Covalent binding affinity to human beta2 adrenoceptor H2.64C mutant expressed in HEK293T cell membranes assessed as covalent blockage of binding site at 50 nM measured after 90 mins by [3H]CGP12177 binding based radioligand depletion assay relative to control.
Experiment [18] is filed under the species Homo sapiens. Put plainly: Covalent binding affinity to human beta2 adrenoceptor H2.64C mutant expressed in HEK293T cell membranes assessed as covalent blockage of binding site at 50 nM measured after 15 mins by [3H]CGP12177 binding based radioligand depletion assay relative to control.
The species entered for experiment [19] is Homo sapiens. Put plainly: Covalent binding affinity to human beta2 adrenoceptor H2.64C mutant expressed in HEK293T cell membranes assessed as covalent blockage of binding site at 50 nM measured after 120 mins by [3H]CGP12177 binding based radioligand depletion assay relative to control.
The species named for experiment [20] is Homo sapiens. Put plainly: Covalent binding affinity to human beta2 adrenoceptor H2.64C mutant expressed in HEK293T cell membranes assessed as covalent blockage of binding site at 50 nM measured after 30 mins by [3H]CGP12177 binding based radioligand depletion assay relative to control.

Usually Ki stands for a dissociation constant, usually derived from enzyme kinetics or from competition with a known ligand. Lower therefore signals a stronger hold on the target.

For the compound `COc1cc(CCNC[C@H](O)COc2ccc(-c3nc(C(F)(F)F)cn3C)cc2)ccc1OCCSSCCN`, in experiment [1], the Ratio Ki worked out at 15. Besides, the Ki in experiment [2] was found to be 150 nM; in experiment [3], 2200 nM. Besides, the KiH came to 0.56 nM in the experiment filed under Mus musculus [4] and 3.6 nM in the experiment filed under Homo sapiens [5]. Moreover, the KiL was 280 nM in the experiment filed under Mus musculus [4] and 2.5 µM in the experiment listed under Homo sapiens [5]. The Activity in the experiment listed under Homo sapiens [6] was under 100%; in the experiment filed under Homo sapiens [7], 84 to 92%; in the experiment listed under Mus musculus [8], 64 to 76%.
In turn, `CC(C)NCC(O)COc1ccc(COCCOC(C)C)cc1` (racemic) [BISOPROLOL] registered an inhibition constant Ki in [2] of 5.3 nM.
Turning to `COc1cc(CCNC[C@H](O)COc2cccc3ccccc23)ccc1OCCSSCCN`, in [1], the Ratio Ki came out at 0.33. Moreover, the Ki in [2] turned out to be 0.49 nM; in experiment [3], 0.16 nM; in experiment [9] it was 0.083 nM. Also, the Activity in the experiment filed under Homo sapiens [10] was 77 to 92%; in the experiment filed under Homo sapiens [11], 100%.
Turning to `COCCc1ccc(OC[C@H](O)CNCCc2ccc(OCCSSCCN)c(OC)c2)cc1`, the Ratio Ki in experiment [1] amounted to 1.8. Moreover, the Ki in experiment [2] worked out at 740 nM; in experiment [3] it was 1300 nM; in experiment [9], 66 nM.
In turn, `Cn1cc(C(F)(F)F)nc1-c1ccc(OCC(O)CNCCOc2ccc(O)c(C(N)=O)c2)cc1` (centres undefined) [CGP-20712A] had a Ki in experiment [2] of 1.4 nM.
As for `COc1cc(CCNC[C@@H](O)COc2cccc3ccccc23)ccc1OCCCSSCCN`, the Ratio Ki in experiment [1] came to 0.033. Moreover, the Ki in experiment [2] was determined as 33 nM; in experiment [3], 1.1 nM; in experiment [9], 1.2 nM.
Take `COc1cc(CCNC[C@H](O)c2ccc(O)c(O)c2)ccc1OCCSSCCN`: the Activity in the experiment filed under Homo sapiens [12] is 71%.
As to `COCCc1ccc(OC[C@@H](O)CNCCc2ccc(OCCSSCCN)c(OC)c2)cc1`, the Ratio Ki in experiment [1] was 2.1. The Ki in [2] amounted to 27 nM; in experiment [3], 57 nM; in experiment [9], 3.8 nM. The Activity in the experiment listed under Homo sapiens [13] turned out to be 100%.
On to `COc1cc(CCNC[C@@H](O)COc2cccc3ccccc23)ccc1OCCSSCCN`, for which the Ratio Ki in [1] was determined as 0.12. Besides, the values for the Ki in [2], in experiment [3] and in experiment [9] were 29 nM, 3.4 nM and 0.75 nM, respectively.
As for `Cn1cc(C(F)(F)F)nc1-c1ccc(OC[C@@H](O)CNCCOc2ccc(OCCSSCCN)c(C(N)=O)c2)cc1`, the Ratio Ki in experiment [1] was found to be 41. Moreover, the inhibition constant (Ki) turned out to be 49 nM in experiment [2] and 2000 nM in experiment [3]. Also, the KiH in the experiment filed under Mus musculus [4] amounted to 0.071 nM; in the experiment filed under Homo sapiens [5], 36 nM. Also, the values for the KiL in the experiment filed under Mus musculus [4] and in the experiment listed under Homo sapiens [5] were 270 nM and 8.4 µM, respectively. Moreover, the Activity is 74% in the experiment filed under Mus musculus [14] and 79% in the experiment listed under Homo sapiens [15].
As for `Cn1cc(C(F)(F)F)nc1-c1ccc(OC[C@@H](O)CNCCOc2ccc(OCCCSSCCN)c(C(N)=O)c2)cc1`, the Ratio Ki in experiment [1] was 20. In addition, the figures for the Ki in experiment [2] and in [3] were 71 nM and 1400 nM, respectively. The KiH turned out to be 3.1 nM in the experiment listed under Mus musculus [4] and 77 nM in the experiment listed under Homo sapiens [5]. Moreover, the KiL in the experiment listed under Mus musculus [4] stood at 480 nM; in the experiment filed under Homo sapiens [5], 3.6 µM. For the same compound, the Activity in the experiment listed under Mus musculus [14] and in the experiment filed under Homo sapiens [15] was 53 to 67% each time.
On to `COc1cc(CCNC[C@H](O)COc2cccc3ccccc23)ccc1OCCCSSCCN`, for which the Ratio Ki in experiment [1] is 0.066. For the same compound, the Ki in experiment [2] turned out to be 1.1 nM; in [3] it was 0.073 nM; in experiment [9] it was 0.18 nM. The results for the Activity in the experiment filed under Homo sapiens [10] and in the experiment listed under Homo sapiens [11] were 77 to 92% and 100%, respectively.
As for `COCCc1ccc(OC[C@H](O)CNCCc2ccc(OCCCSSCCN)c(OC)c2)cc1`, in experiment [1], the Ratio Ki worked out at 1.5. Further, the inhibitory constant (Ki) was found to be 220 nM in experiment [2], 320 nM in [3] and 26 nM in experiment [9].
In the case of `COc1cc(CCNC[C@H](O)COc2ccc(COCCOC(C)C)cc2)ccc1OCCSSCCN`, the Ratio Ki in experiment [1] amounted to 20. In addition, the Ki in [2] amounted to 2.6 nM; in experiment [3] it was 51 nM; in [16], 2 nM; in experiment [9], 0.26 nM. For the same compound, the Activity was under 100% in the experiment listed under Homo sapiens [17], 84 to 92% in the experiment filed under Homo sapiens [18] and 64 to 76% in the experiment filed under Mus musculus [8].
The compound `COCCc1ccc(OCC(O)CNC(C)C)cc1` (racemic) [METOPROLOL] displayed a Ki in [2] of 49 nM.
For the compound `COCCc1ccc(OC[C@@H](O)CNCCc2ccc(OCCCSSCCN)c(OC)c2)cc1`, the Ratio Ki in experiment [1] was determined as 0.91. Besides, the Ki in [2] turned out to be 22 nM; in [3], 20 nM; in experiment [9] it was 1.5 nM. The Activity in the experiment filed under Homo sapiens [19] and in the experiment filed under Homo sapiens [20] was 100% each time.
